These results are taken from patent US20100216791A1, “PYRIDINYLQUINAZOLINAMINE DERIVATIVES AND THEIR USE AS B-RAF INHIBITORS” (ASTRAZENECA, priority 2006, published 2010).

The target of the assay is Mutant B-Raf (V600E) enzyme (MT B-Raf) (Homo sapiens, UniProt P15056, V600E). In words: biochemical. To be noted: B-Raf Alpha screen comparable to the described assay; phosphorylation of biotinylated HIS-MEK-AVI; results may be an average of two or more results.
Mutant B-Raf (V600E) enzyme (MT B-Raf), sequence (P15056 whole entry V600E): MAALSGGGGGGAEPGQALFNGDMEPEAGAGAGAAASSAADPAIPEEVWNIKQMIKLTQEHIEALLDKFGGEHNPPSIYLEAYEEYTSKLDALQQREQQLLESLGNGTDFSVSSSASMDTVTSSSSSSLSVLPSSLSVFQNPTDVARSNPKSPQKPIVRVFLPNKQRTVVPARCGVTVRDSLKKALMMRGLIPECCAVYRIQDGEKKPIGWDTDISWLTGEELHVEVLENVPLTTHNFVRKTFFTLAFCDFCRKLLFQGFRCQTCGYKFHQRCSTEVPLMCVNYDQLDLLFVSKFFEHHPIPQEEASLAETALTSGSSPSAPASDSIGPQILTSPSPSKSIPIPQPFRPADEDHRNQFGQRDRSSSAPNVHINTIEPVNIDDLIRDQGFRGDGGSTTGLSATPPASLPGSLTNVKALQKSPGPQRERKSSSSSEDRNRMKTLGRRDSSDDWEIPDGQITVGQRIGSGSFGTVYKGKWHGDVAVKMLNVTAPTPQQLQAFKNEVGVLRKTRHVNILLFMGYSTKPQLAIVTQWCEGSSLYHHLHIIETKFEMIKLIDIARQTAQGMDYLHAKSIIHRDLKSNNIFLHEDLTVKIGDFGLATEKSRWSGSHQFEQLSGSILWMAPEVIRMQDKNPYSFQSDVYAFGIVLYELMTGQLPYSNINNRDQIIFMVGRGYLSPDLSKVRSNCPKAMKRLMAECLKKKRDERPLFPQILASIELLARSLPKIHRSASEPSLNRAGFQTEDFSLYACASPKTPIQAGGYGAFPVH

Consider `CC(C)(C#N)c1ccc(Nc2ncc3cc(-c4ccncc4)ccc3n2)cc1` [Example 2, 2-Methyl-2-{4-[(6-pyridin-4-ylquinazolin-2-yl)amino]phenyl}propanenitrile], for which the half-inhibitory concentration (IC50) was determined as 730 nM.
As for `Nc1ccc(Nc2ncc3cc(-c4ccncc4)ccc3n2)cc1` [Example 137], the half-inhibitory concentration (IC50) was found to be 80 nM.
With `COCCNC(=O)c1ccc(Nc2ncc3cc(-c4ccncc4)ccc3n2)c(OC)c1` [Example 114], the half-inhibitory concentration (IC50) is 6800 nM.
The same measure for `CC(c1ccc(Nc2ncc3cc(-c4ccncc4)ccc3n2)cc1)N(C)C` (single isomer, unassigned) [Example 140]: 21 nM; for `O=S(=O)(c1cccc(Nc2ncc3cc(-c4ccncc4)ccc3n2)c1)N1CCOCC1` [Example 102, N-[3-(Morpholin-4-ylsulfonyl)phenyl]-6-pyridin-4-ylquinazolin-2-amine]: 520 nM.
The same measure for `O=C(NCCO)c1ccc(Nc2ncc3cc(-c4ccncc4)ccc3n2)cc1` [Example 7, N-(2-Hydroxyethyl)-4-[(6-pyridin-4-ylquinazolin-2-yl)amino]benzamide]: 140 nM; for `CC(C)(C)OC(=O)NCCCNC(=O)c1ccc(Nc2ncc3cc(-c4ccncc4)ccc3n2)cc1` [Example 26, tert-Butyl [3-({4-[(6-pyridin-4-ylquinazolin-2-yl)amino]benzoyl}amino)propyl]carbamate]: 550 nM; for `c1cc(-c2ccc3nc(Nc4ccc(CNCCN5CCOCC5)cc4)ncc3c2)ccn1` [Example 70, N-(4-{[(2-Morpholin-4-ylethyl)amino]methyl}phenyl)-6-pyridin-4-ylquinazolin-2-amine]: 74 nM.
As for `Cc1cc(Nc2ncc3cc(-c4ccncc4)ccc3n2)ccc1C(=O)NCCN(C)C` [Example 36, N-[2-(Dimethylamino)ethyl]-2-methyl-4-[(6-pyridin-4-ylquinazolin-2-yl)amino]benzamide], the figure is 95 nM; as for `FC(F)(F)Oc1ccc(Nc2ncc3cc(-c4ccncc4)ccc3n2)cc1` [Example 99, 6-Pyridin-4-yl-N-[4-(trifluoromethoxy)phenyl]quinazolin-2-amine], 1100 nM.
For the molecule `CC(NCCCO)c1ccc(Nc2ncc3cc(-c4ccncc4)ccc3n2)cc1` (stereo not shown) [Example 58, 3-[(1-{4-[(6-Pyridin-4-ylquinazolin-2-yl)amino]phenyl}ethyl)amino]propan-1-ol], 36 nM corresponded to half-maximal inhibition (IC50).
The same measure for `c1cc(-c2ccc3nc(Nc4ccc5c(c4)OCO5)ncc3c2)ccn1` [Example 44, N-1,3-Benzodioxol-5-yl-6-pyridin-4-ylquinazolin-2-amine]: 420 nM; for `Cc1nc2cc(Nc3ncc4cc(-c5ccncc5)ccc4n3)ccc2o1` [Example 109, N-(2-Methyl-1,3-benzoxazol-5-yl)-6-pyridin-4-ylquinazolin-2-amine]: 940 nM; for `FC(F)(F)c1cccc(Nc2ncc3cc(-c4ccncc4)ccc3n2)c1` [Example 82, 6-Pyridin-4-yl-N-[3-(trifluoromethyl)phenyl]quinazolin-2-amine]: 3100 nM.
In turn, `O=C1CCCN1c1ccc(Nc2ncc3cc(-c4ccncc4)ccc3n2)cc1` [Example 54, 1-{4-[(6-Pyridin-4-ylquinazolin-2-yl)amino]phenyl}pyrrolidin-2-one] showed an IC50 of 120 nM.
Molecule `O=C(NCCCN1CCCC1=O)c1ccc(Nc2ncc3cc(-c4ccncc4)ccc3n2)cc1` [Example 21, N-[3-(2-Oxopyrrolidin-1-yl)propyl]-4-[(6-pyridin-4-ylquinazolin-2-yl)amino]benzamide] returned an IC50 of 200 nM.
The same measure for `CC(C)(C)OC(=O)N1CCCC1CNC(=O)c1ccc(Nc2ncc3cc(-c4ccncc4)ccc3n2)cc1` (stereo not shown) [Example 19, tert-Butyl 2-[({4-[(6-pyridin-4-ylquinazolin-2-yl)amino]benzoyl}amino)methyl]pyrrolidine-1-carboxylate]: 490 nM; for `CC(CN(C)C)NCc1ccc(Nc2ncc3cc(-c4ccncc4)ccc3n2)cc1` (stereo not shown) [Example 74, N^1,N^1-Dimethyl-N^2-{4-[(6-pyridin-4-ylquinazolin-2-yl)amino]benzyl}propane-1,2-diamine]: 160 nM.
As for `Cn1ccc(Nc2ncc3cc(-c4ccncc4)ccc3n2)n1` [Example 88, N-(1-Methyl-1H-pyrazol-3-yl)-6-pyridin-4-ylquinazolin-2-amine], the figure is 1820 nM; as for `CNCCNC(=O)c1ccnc(Nc2ncc3cc(-c4ccncc4)ccc3n2)c1` [Example 66, N-[2-(Methylamino)ethyl]-2-[(6-pyridin-4-ylquinazolin-2-yl)amino]isonicotinamide], 700 nM; as for `COCCNC(=O)c1ccnc(Nc2ncc3cc(-c4ccncc4)ccc3n2)c1` [Example 37, N-(2-Methoxyethyl)-2-[(6-pyridin-4-ylquinazolin-2-yl)amino]isonicotinamide], 1700 nM.
For the molecule `CC(C)(C)OC(=O)NCCNC(=O)c1ccc(Nc2ncc3cc(-c4ccncc4)ccc3n2)cc1` [Example 25, tert-Butyl [2-({4-[(6-pyridin-4-ylquinazolin-2-yl)amino]benzoyl}amino)ethyl]carbamate], the half-inhibitory concentration (IC50) was 390 nM.
As to `COCCNS(=O)(=O)c1ccc(Nc2ncc3cc(-c4ccncc4)ccc3n2)cc1` [Example 113], inhibition was half-maximal at 100 nM (IC50).
The same measure for `O=C(O)c1ccc(Nc2ncc3cc(-c4ccncc4)ccc3n2)cc1` [Example 122, 4-(6-(Pyridin-4-yl)quinazolin-2-ylamino)benzoic acid]: 78 nM.
The same measure for `NCCNC(=O)c1ccc(Nc2ncc3cc(-c4ccncc4)ccc3n2)cc1` [Example 63, N-(2-Aminoethyl)-4-[(6-pyridin-4-ylquinazolin-2-yl)amino]benzamide]: 98 nM; for `CC(=O)N1CCN(C(=O)c2ccc(Nc3ncc4cc(-c5ccncc5)ccc4n3)cc2)CC1` [Example 119]: 64 nM.
As for `Oc1ccc(Nc2ncc3cc(-c4ccncc4)ccc3n2)cc1` [Example 81, 4-[(6-Pyridin-4-ylquinazolin-2-yl)amino]phenol], the figure is 61 nM.
`Cc1cc(Nc2ncc3cc(-c4ccncc4)ccc3n2)ccc1C(C)N(C)P(C)(C)=O` (stereo not shown) [Example 130]: it took 120 nM to reach half-maximal inhibition (IC50).
As to `Cc1cccc(Nc2ncc3cc(-c4ccncc4)ccc3n2)c1` [Example 83, N-(3-Methylphenyl)-6-pyridin-4-ylquinazolin-2-amine], it took 630 nM to reach half-maximal inhibition (IC50).
`CC(=O)c1ccc(Nc2ncc3cc(-c4ccncc4)ccc3n2)cc1` [Example 53, 1-{4-[(6-Pyridin-4-ylquinazolin-2-yl)amino]phenyl}ethanone] showed an IC50 of 210 nM.
In turn, `c1cc(-c2ccc3nc(Nc4ccc(OCCN5CCCCC5)cc4)ncc3c2)ccn1` [Example 42, N-[4-(2-Piperidin-1-ylethoxy)phenyl]-6-pyridin-4-ylquinazolin-2-amine] returned an IC50 of 230 nM.
As for `CN1CCN(Cc2ccc(Nc3ncc4cc(-c5ccncc5)ccc4n3)cc2)CC1` [Example 132], the figure is 73 nM; as for `CN(C)CCOc1ccc(Nc2ncc3cc(-c4ccncc4)ccc3n2)cc1` [Example 40, N-{4-[2-(Dimethylamino)ethoxy]phenyl}-6-pyridin-4-ylquinazolin-2-amine], 160 nM; as for `CN(CCCNC(=O)c1ccc(Nc2ncc3cc(-c4ccncc4)ccc3n2)cc1)C(=O)OC(C)(C)C` [Example 13, tert-Butyl methyl[3-({4-[(6-pyridin-4-ylquinazolin-2-yl)amino]benzoyl}amino)propyl]carbamate], 310 nM.
The same measure for `CC(c1ccc(Nc2ncc3cc(-c4ccncc4)ccc3n2)cc1)N(C)CCCO` (stereo not shown) [Example 135]: 29 nM.
Turning to `c1cc(-c2ccc3nc(Nc4ccc(N5CCOCC5)cc4)ncc3c2)ccn1` [Example 79, N-(4-Morpholin-4-ylphenyl)-6-pyridin-4-ylquinazolin-2-amine], half-maximal inhibition (IC50) required 130 nM.
As for `c1cc(Nc2ncc3cc(-c4ccncc4)ccc3n2)cc(N2CCOCC2)c1` [Example 85, N-(3-Morpholin-4-ylphenyl)-6-pyridin-4-ylquinazolin-2-amine], the figure is 390 nM; as for `O=S(=O)(c1ccc(Nc2ncc3cc(-c4ccncc4)ccc3n2)cc1)C(F)F` [Example 95, N-{4-[(Difluoromethyl)sulfonyl]phenyl}-6-pyridin-4-ylquinazolin-2-amine], 1000 nM; as for `COCCNC(=O)c1ccc(Nc2ncc3cc(-c4ccncc4F)ccc3n2)cc1` [Example 48, 4-{[6-(3-Fluoropyridin-4-yl)quinazolin-2-yl]amino}-N-(2-methoxyethyl)benzamide], 270 nM.
As for `CC(c1ccc(Nc2ncc3cc(-c4ccncc4)ccc3n2)cc1)N(C)C` (stereo not shown) [Example 133], the figure is 46 nM; as for `CCCCNS(=O)(=O)c1cccc(Nc2ncc3cc(-c4ccncc4)ccc3n2)c1` [Example 84, N-Butyl-3-[(6-pyridin-4-ylquinazolin-2-yl)amino]benzenesulfonamide], 820 nM.
The same measure for `CN(C)[C@H]1CCN(C(=O)c2ccc(Nc3ncc4cc(-c5ccncc5)ccc4n3)cc2)C1` [Example 118]: 93 nM.
Take `Cc1cc(Nc2ncc3cc(-c4ccncc4)ccc3n2)ccc1C(=O)NCCN1CCOCC1` [Example 33, 2-Methyl-N-(2-morpholin-4-ylethyl)-4-[(6-pyridin-4-ylquinazolin-2-yl)amino]benzamide]: the half-inhibitory concentration (IC50) worked out at 160 nM.
`O=C(NC1CCNCC1)c1ccc(Nc2ncc3cc(-c4ccncc4)ccc3n2)cc1` [Example 67, N-Piperidin-4-yl-4-[(6-pyridin-4-ylquinazolin-2-yl)amino]benzamide]: the IC50 amounted to 110 nM.
As for `O=C(NCCc1ccccn1)c1ccc(Nc2ncc3cc(-c4ccncc4)ccc3n2)cc1` [Example 20, N-(2-Pyridin-2-ylethyl)-4-[(6-pyridin-4-ylquinazolin-2-yl)amino]benzamide], the figure is 250 nM; as for `CC(C)(C)OC(=O)N1CCC(CNC(=O)c2ccc(Nc3ncc4cc(-c5ccncc5)ccc4n3)cc2)CC1` [Example 24, tert-Butyl 4-[({4-[(6-pyridin-4-ylquinazolin-2-yl)amino]benzoyl}amino)methyl]piperidine-1-carboxylate], 520 nM.

As a reminder, the IC50 is the concentration at which inhibition is half-maximal. Low values mean higher potency, high ones lower potency.
